# pKd, pKi: −log10 of the molar value.
# What was measured:
# [1] = target: Sodium-dependent serotonin transporter (Rattus norvegicus, UniProt P31652); assay: Compound was tested for its ability to inhibit high affinity uptake of [3H]5-HT into mid brain nerve endings (synaptosomes) in rat; assay type: subcellular
# [2] = target: Norepinephrine transporter (Rattus norvegicus, UniProt Q9WTR4); assay: Compound was tested for its ability to inhibit high-affinity uptake of [3H]NE into parietal and occipital cortex in rat
# Norepinephrine transporter, sequence (Q9WTR4 whole entry): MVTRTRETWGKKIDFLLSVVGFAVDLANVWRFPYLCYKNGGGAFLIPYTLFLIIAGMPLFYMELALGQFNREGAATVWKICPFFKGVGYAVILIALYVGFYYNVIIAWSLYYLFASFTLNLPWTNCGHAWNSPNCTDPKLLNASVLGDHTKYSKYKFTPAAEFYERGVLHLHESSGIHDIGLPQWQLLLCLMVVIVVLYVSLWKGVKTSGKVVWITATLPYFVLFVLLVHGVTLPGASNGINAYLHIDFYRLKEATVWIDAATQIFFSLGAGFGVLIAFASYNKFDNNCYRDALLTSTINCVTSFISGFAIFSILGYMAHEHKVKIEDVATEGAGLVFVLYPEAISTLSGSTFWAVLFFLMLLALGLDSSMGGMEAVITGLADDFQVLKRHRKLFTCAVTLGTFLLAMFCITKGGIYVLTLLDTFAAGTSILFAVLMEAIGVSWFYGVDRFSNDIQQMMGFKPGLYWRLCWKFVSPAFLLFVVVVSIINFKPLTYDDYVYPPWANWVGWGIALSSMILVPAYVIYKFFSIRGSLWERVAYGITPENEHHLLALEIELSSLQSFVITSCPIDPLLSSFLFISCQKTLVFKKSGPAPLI
# [3] = target: T1, Sodium-dependent dopamine transporter (Rattus norvegicus, UniProt P23977); assay: ability to displace [3H]- Mazindol binding to cocaine binding sites on Dopamine transporter of rat striatal membranes; parameters: species or system Striatum, Membrane
# T1 sequence (P23977 whole entry): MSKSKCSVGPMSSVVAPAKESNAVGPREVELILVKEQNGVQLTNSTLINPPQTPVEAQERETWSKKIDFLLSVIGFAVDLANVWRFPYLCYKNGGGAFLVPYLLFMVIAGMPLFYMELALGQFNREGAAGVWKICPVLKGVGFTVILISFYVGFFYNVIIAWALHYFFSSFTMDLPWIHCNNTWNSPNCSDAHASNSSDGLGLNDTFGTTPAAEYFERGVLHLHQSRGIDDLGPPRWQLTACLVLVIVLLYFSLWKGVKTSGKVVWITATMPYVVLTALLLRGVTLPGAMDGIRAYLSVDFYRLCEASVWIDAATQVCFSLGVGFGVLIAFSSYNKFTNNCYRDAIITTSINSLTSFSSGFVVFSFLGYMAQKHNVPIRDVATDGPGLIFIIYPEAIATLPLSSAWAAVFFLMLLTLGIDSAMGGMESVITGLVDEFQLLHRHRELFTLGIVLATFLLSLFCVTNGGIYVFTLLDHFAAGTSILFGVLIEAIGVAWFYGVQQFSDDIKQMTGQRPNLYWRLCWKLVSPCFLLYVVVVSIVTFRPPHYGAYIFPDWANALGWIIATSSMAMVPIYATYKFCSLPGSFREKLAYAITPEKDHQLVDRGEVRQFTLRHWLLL
# [4] = target: T1, Sodium-dependent dopamine transporter; assay: Compound was tested for its ability to inhibit high affinity uptake of [3H]DA into rat striatal membrane; parameters: species or system Striatum
# Rattus norvegicus = assay: Percent reduction in cocaine induced reward enhancement after administration of compound at 5 mg/kg or 10 mg/kg combined with 10 mg/kg of cocaine intraperitoneally in rats; assay type: functional
# [5] = target: T1, Sodium-dependent dopamine transporter; assay: Binding affinity to a single, sodium-dependent site on the Dopamine transporter in rat striatal membranes; assay type: cell membranes, Striatum, Membrane
# Sodium-dependent serotonin transporter, sequence (P31652 whole entry): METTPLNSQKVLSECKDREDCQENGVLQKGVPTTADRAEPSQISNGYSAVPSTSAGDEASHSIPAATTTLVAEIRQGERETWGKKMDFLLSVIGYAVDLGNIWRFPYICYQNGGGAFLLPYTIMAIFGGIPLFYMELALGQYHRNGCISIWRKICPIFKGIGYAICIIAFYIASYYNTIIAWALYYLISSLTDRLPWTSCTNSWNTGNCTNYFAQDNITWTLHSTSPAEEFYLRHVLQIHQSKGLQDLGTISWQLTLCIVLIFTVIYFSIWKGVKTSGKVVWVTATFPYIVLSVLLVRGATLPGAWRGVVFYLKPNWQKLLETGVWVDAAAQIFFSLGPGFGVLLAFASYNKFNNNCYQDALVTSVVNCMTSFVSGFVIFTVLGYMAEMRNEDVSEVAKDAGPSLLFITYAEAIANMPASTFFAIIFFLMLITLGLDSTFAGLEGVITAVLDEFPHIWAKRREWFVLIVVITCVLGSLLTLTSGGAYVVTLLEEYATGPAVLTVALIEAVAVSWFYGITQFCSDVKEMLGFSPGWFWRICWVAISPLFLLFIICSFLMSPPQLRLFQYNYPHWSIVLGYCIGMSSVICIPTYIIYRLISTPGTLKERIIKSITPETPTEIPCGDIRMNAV
SMILES,pKi [1],pKi [2],pKi [3],pKi [4],Reduction (Rattus norvegicus) [%],pKd [5]
CCCC1C(c2ccc(F)cc2)CC2CC(F)(F)C1N2C (stereo not drawn),5.10,5.42,6.07,5.84,,
CCCC1C(c2ccc(F)cc2)CC2C[C@H](F)C1N2C (stereo partly drawn),6.25,7.28,,7.31,60,
CCCC1C(c2ccc(F)cc2)CC2C[C@@H](F)C1N2C (stereo partly drawn),5.90,6.90,5.94,6.52,,
OC1(c2ccc(Cl)cc2)c2ccccc2C2=NCCN21 (stereo not drawn) [MAZINDOL],,,,,,8.06

# From ChEMBL document CHEMBL1133212, “An enantioselective synthesis and biobehavioral evaluation of 7-fluoro-3-(p-fluorophenyl)-2-propyltropanes” (Bioorg Med Chem Lett, 2000)
